Assay [1] addresses T1, Ribonuclease pancreatic (Homo sapiens) (UniProt P07998).
T1 sequence (whole entry): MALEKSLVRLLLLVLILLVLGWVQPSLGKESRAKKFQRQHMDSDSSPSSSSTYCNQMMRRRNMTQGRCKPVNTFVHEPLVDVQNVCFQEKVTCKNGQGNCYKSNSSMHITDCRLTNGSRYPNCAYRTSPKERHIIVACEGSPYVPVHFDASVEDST
Nature of the assay: Inhibition of RNase A assessed as degradation of 28s and 18s rRNA at 0.476 mM after 6 hrs by agarose gel based assay.

In assay [2] the target is T1, Ribonuclease pancreatic (Homo sapiens). Nature of the assay: Inhibition of RNase A assessed as degradation of 28s and 18s rRNA at 0.412 mM after 6 hrs by agarose gel based assay.

The structures appear in SMILES notation. Active and inactive are the calls of the source. The calls are words filed in the database; no cut-off is given here.

Consider `Nc1ncnc2c1ncn2CCn1cc(CO[C@@H]2Cc3c(O)cc(O)cc3O[C@@H]2c2ccc(O)c(O)c2)nn1`, for which the outcome in assay [1] was Active.

Turning to `CCOC(=O)Cn1c(=O)c(C)cn(CCn2cc(CO[C@@H]3Cc4c(O)cc(O)cc4O[C@@H]3c3ccc(O)c(O)c3)nn2)c1=O`, the result in assay [2] was inactive.

On to `CCOC(=O)Cn1c(=O)c(C)cn(CCn2cc(CO[C@H]3Cc4c(O)cc(O)cc4O[C@@H]3c3ccc(O)c(O)c3)nn2)c1=O`, for which the outcome in assay [2] was inactive.

On to `Nc1ncnc2c1ncn2CCn1cc(CO[C@H]2Cc3c(O)cc(O)cc3O[C@@H]2c2ccc(O)c(O)c2)nn1`, for which the outcome in assay [1] was Active.

The record behind these values is ChEMBL document CHEMBL1152246, “Design, synthesis and RNase A inhibition activity of catechin and epicatechin and nucleobase chimeric molecules” (Bioorg Med Chem Lett, 2008).
